Reference: patent publication US20200239420A1, “MODULATORS OF INDOLEAMINE 2,3-DIOXYGENASE” (GLAXOSMITHKLINE INTELLECTUAL PROPERTY DEVELOPMENT LIMITED, priority 2017, published 2020)

How the values were obtained:
[1] = tested on: human peripheral blood mononuclear cells (PBMC); test: PBMC cytotoxicity assay (CellTiter-Glo); assay type: cell-based; conditions: 48 h; IFN-γ/LPS-stimulated human PBMC, 2 days, CellTiter-Glo cytotoxicity (pCC50); read-out: PBMC TOX pIC50 (converted)
Experimental: (§1) Compounds of the present invention were tested via high-throughput cellular assays utilizing detection of kynurenine via mass spectrometry and cytotoxicity as end-points. For the mass spectrometry and cytotoxicity assays, human peripheral blood mononuclear cells (PBMC) (PB003F; AllCells®, Alameda, Calif.) were stimulated with human interferon-γ (IFN-γ) (Sigma-Aldrich Corporation, St. Louis, Mo.) and lipopolysaccharide from Salmonella minnesota (LPS) (Invivogen, San Diego, Calif.) to induce the expression of indoleamine 2, 3-dioxygenase (IDO1). Compounds with IDO1 inhibitory properties decreased the amount of kynurenine produced by the cells via the tryptophan catabolic pathway. Cellular toxicity due to the effect of compound treatment was measured using CellTiter-Glo® reagent (CTG) (Promega Corporation, Madison, Wis.), which is based on luminescent detection of ATP, an indicator of metabolically active cells.
(§2) In preparation for the assays, test compounds were serially diluted 3-fold in DMSO from a typical top concentration of 1 mM or 5 mM and plated at 0.5 μL in 384-well, polystyrene, clear bottom, tissue culture treated plates with lids (Greiner Bio-One, Kremsmünster, Austria) to generate 11-point dose response curves. Low control wells (0% kynurenine or 100% cytotoxicity) contained either 0.5 μL of DMSO in the presence of unstimulated (−IFN-γ/−LPS) PBMCs for the mass spectrometry assay or 0.5 μL of DMSO in the absence of cells for the cytotoxicity assay, and high control wells (100% kynurenine or 0% cytotoxicity) contained 0.5 μL of DMSO in the presence of stimulated (+IFN-γ/+LPS) PBMCs for both the mass spectrometry and cytotoxicity assays.
(§3) Frozen stocks of PBMCs were washed and recovered in RPMI 1640 medium (Thermo Fisher Scientific, Inc., Waltham, Mass.) supplemented with 10% v/v heat-inactivated fetal bovine serum (FBS) (Thermo Fisher Scientific, Inc., Waltham, Mass.), and 1× penicillin-streptomyci antibiotic solution (Thermo Fisher Scientific, Inc., Waltham, Mass.). The cells were diluted to 1,000,000 cells/mL in the supplemented RPMI 1640 medium. 50 μL of either the cell suspension, for the mass spectrometry assay, or medium alone, for the cytotoxicity assay, were added to the low control wells, on the previously prepared 384-well compound plates, resulting in 50,000 cells/well or 0 cells/well respectively. IFN-γ and LPS were added to the remaining cell suspension at final concentrations of 100 ng/ml and 50 ng/ml respectively, and 50 μL of the stimulated cells were added to all remaining wells on the 384-well compound plates. The plates, with lids, were then placed in a 37 °C, 5% CO2 humidified incubator for 2 days.
(§4) Following incubation, the 384-well plates were removed from the incubator and allowed to equilibrate to room temperature for 30 minutes. For the cytotoxicity assay, CellTiter-Glo® was prepared according to the manufacturer's instructions, and 40 μL were added to each plate well. After a twenty-minute incubation at room temperature, luminescence was read on an EnVision® Multilabel Reader (PerkinElmer Inc., Waltham, Mass.). For the mass spectrometry assay, 10 μL of supernatant from each well of the compound-treated plates were added to 40 μL of acetonitrile, containing 10 μM of an internal standard for normalization, in 384-well, polypropylene, V-bottom plates (Greiner Bio-One, Kremsmünster, Austria) to extract the organic analytes. Following centrifugation at 2000 rpm for 10 minutes, 10 μL from each well of the acetonitrile extraction plates were added to 90 μL of sterile, distilled H2O in 384-well, polypropylene, V-bottom plates for analysis of kynurenine and the internal standard on the RapidFire 300 (Agilent Technologies, Santa Clara, Calif.) and 4000 QTRAP MS (SCIEX, Framingham, Mass.). MS data were integrated using Agilent Technologies' RapidFire Integrator software, and data were normalized for analysis as a ratio of kynurenine to the internal standard. […]

[2] = molecular target: T1, indoleamine 2, 3-dioxygenase (IDO1) (Homo sapiens, UniProt P14902); test: IDO1 PBMC RapidFire MS assay (kynurenine detection); assay type: cell-based; conditions: IFN-γ/LPS-stimulated human PBMC, 2 days, kynurenine by mass spectrometry; read-out: PBMC pIC50 (converted)
T1 construct: to induce the expression of indoleamine 2, 3-dioxygenase (IDO1); host or cells: human PBMC stimulated with IFN-gamma and LPS
T1 sequence (P14902 whole entry): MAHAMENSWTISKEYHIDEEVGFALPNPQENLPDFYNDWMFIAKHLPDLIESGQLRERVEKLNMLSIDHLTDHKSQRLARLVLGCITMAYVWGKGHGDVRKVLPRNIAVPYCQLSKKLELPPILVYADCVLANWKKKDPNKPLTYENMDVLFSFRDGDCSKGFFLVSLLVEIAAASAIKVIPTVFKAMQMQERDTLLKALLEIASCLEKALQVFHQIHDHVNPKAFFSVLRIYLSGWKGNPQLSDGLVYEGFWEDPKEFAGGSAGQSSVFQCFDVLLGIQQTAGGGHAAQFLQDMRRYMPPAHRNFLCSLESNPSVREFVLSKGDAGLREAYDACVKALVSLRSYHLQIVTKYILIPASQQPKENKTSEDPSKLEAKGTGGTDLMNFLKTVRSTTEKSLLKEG
Experimental: as §1, §2, §3, §4

Rat PK = assay type: in vivo; conditions: male Han Wistar rats, n = 3

IC50 [2] | AUC(0-inf) (Rat PK; rat, in vivo, PO, 3 mg/kg) | AUC(0-t) (Rat PK; rat, in vivo, PO, 3 mg/kg) | Cmax (Rat PK; rat, in vivo, PO, 3 mg/kg) | Tmax (Rat PK; rat, in vivo, PO, 3 mg/kg) | half-life (Rat PK; rat, in vivo, PO, 3 mg/kg) | Compound | IC50 [1] | other results
63.1 nM |  |  |  |  |  | O=C(CC1CC2(CCC(c3ccnc4ccccc34)CC2)C1)Nc1ccc(Cl)cc1 (centres unmarked) [Example 5, N-(4-chlorophenyl)-2-(7-(quinolin-4-yl)spiro[3.5]nonan-2-yl)acetamide] | > 10 µM | 
126 nM |  |  |  |  |  | O=C(Nc1ccc(Cl)cc1)[C@@H]1C[C@]12CC[C@@H](c1ccnc3ccccc31)CC2 (relative stereo) [Example 2, trans-N-(4-chlorophenyl)-6-(quinolin-4-yl)spiro[2.5]octane-1-carboxamide] | > 10 µM | 
20 nM | 15500 ng·h/mL | 14400 ng·h/mL | 1140 ng/mL | 3 h | 353 min | O=C(NC1CC2(CCC(c3ccnc4ccccc34)CC2)C1)c1ccc(Cl)s1 (centres unmarked) [Example 4, 5-chloro-N-(7-(quinolin-4-yl)spiro[3.5]nonan-2-yl)thiophene-2-carboxamide] | > 10 µM | 
79.4 nM |  |  |  |  |  | O=C(NC1CC2(CCC(c3ccnc4ccccc34)CC2)C1)c1ccc(Cl)cc1 (centres unmarked) [Example 3, 4-chloro-N-(7-(quinolin-4-yl)spiro[3.5]nonan-2-yl)benzamide] | > 10 µM | 
63.1 nM | 14000 ng·h/mL | 12300 ng·h/mL | 1000 ng/mL | 1 h | 430 min | O=C(Nc1ccc(Cl)cc1)[C@@H]1C[C@]12CC[C@H](c1ccnc3ccccc31)CC2 (relative stereo) [Example 1, cis-N-(4-chlorophenyl)-6-(quinolin-4-yl)spiro[2.5]octane-1-carboxamide] | > 10 µM | F (Rat PK; PO, 3 mg/kg): 60.2%; AUC(0-inf) (Rat PK; rat, in vivo, IV, 1 mg/kg): 4660 ng·h/mL; AUC(0-t) (Rat PK; rat, in vivo, IV, 1 mg/kg): 4450 ng·h/mL; MRT inf (Rat PK; rat, in vivo, IV, 1 mg/kg): 7.35 h; clearance (Rat PK; rat, in vivo, IV, 1 mg/kg): 3.58 mL/min/kg; half-life (Rat PK; rat, in vivo, IV, 1 mg/kg): 322 min; Vd (Rat PK; rat, in vivo, IV, 1 mg/kg, read-out: Vss): 1.58 L/kg
15.8 nM |  |  |  |  |  | O=C(Nc1ccc(Cl)cc1)C1CC2(CCC(c3ccnc4ccc(F)cc34)CC2)C1 (centres unmarked) [Example 6, N-(4-chlorophenyl)-7-(6-fluoroquinolin-4-yl)spiro[3.5]nonane-2-carboxamide] | > 10 µM | 
